Data set [1] can be described thus: Toxicity in BALB/c nude mouse xenografted with human THP-1 cells assessed as animal death at 2.4 to 4.8 mg/kg, ip qd measured after 2 to 3 days. Conditions: in vivo, dose lower 2.4 mg/kg, time lower 2 day, dose upper 4.8 mg/kg, time upper 3 day. The data set is classed as organism-based.
Data set [2] is described as follows: Prodrug conversion in human plasma assessed as (5bS,6aS,7aR,8R,8aS,9aS,9bS,10bS)-8a-isopropyl-10b-methyl-3-oxo-1,2,3,5,5b,6,6a,8,8a,9a,9b,10b-dodecahydrotris(oxireno [2',3':4b,5;2'',3'':6,7;2''',3''':8a,9]phenanthro[1,2-c]furan-8-yl 2-hydroxyacetate intermediate formation measured after 1 hr by HPLC analysis. The data set is classed as ADME, cell-free.
Data set [3] deals with MV4-11. Description: Antitumor activity against human MV4-11 cells xenografted in BALB/c nude mouse assessed as induction of apoptosis by measuring caspase-3 level in tumor at 50 microg/kg, ip administered for 20 days in presence of gilteritinib by immunohistochemical analysis. Conditions: dose 50.0 µg/kg, time 20.0 day. Type of data set: functional, organism-based.
Data set [4] has as its system MV4-11. The data set is described as follows: Potency index, ratio of test compound IC50 to triptolide IC50 for antiproliferative activity against human MV4-11 cells assessed as inhibition of cell growth measured after 48 hrs by CCK8 assay. Type of data set: functional.
Data set [5] is described as follows: Chemical stability of the compound in water assessed as parent compound remaining at 2 mg/ml measured immediately by HPLC analysis. Conditions: read-out: Stability. Type of data set: physicochemical.
The test system of a further data set is PBMC. Description: Cytotoxicity against human PBMC cells assessed as cell survial at 30 to 300 nM measured after 48 hrs by CCK8 assay. The data set is classed as toxicity, cell-based. Conditions: 0.3 µM, dose 30-300 nM. In general terms: Formazan colour is commonly taken as a measure of viable cells.
Data set [6] in a line: Prodrug conversion in human plasma assessed as triptolide release at 1 mg/ml measured after 1 hrs by HPLC analysis. The data set is classed as ADME, cell-free.
Data set [7] in a line: Prodrug conversion in human plasma assessed as (5bS,6aS,7aR,8R,8aS,9aS,9bS,10bS)-8a-isopropyl-10b-methyl-3-oxo-1,2,3,5,5b,6,6a,8,8a,9a,9b,10b-dodecahydrotris(oxireno [2',3':4b,5;2'',3'':6,7;2''',3''':8a,9]phenanthro[1,2-c]furan-8-yl 2-hydroxyacetate intermediate formation by HPLC analysis. The data set is classed as ADME, cell-free.
The test system of data set [8] is MV4-11. Description: Antitumor activity against human MV4-11 cells xenografted in BALB/c nude mouse assessed as tumor growth inhibition at 50 microg/kg, ip administered for 20 days in presence of gilteritinib and measured every 2 days relative to control. The data set is classed as functional. Conditions: MV4-11, 480 h, dose 50 µg/kg, time 20 day, read-out: TGI. On the technique in general: In xenograft studies the graft and the host belong to different species.

Data set [9] relates to MV4-11. The data set is described as follows: Antitumor activity against human MV4-11 cells xenografted in BALB/c nude mouse assessed as cell growth inhibition by measuring effect on Ki67 protein expression in tumor at 50 microg/kg, ip administered for 20 days in presence of gilteritinib by immunohistochemical analysis. The data set is classed as functional, organism-based. To be noted: dose 50.0 µg/kg, time 20.0 day.

For data set [10], the system named is THP-1. Description: Potency index, ratio of test compound IC50 to triptolide IC50 for antiproliferative activity against human THP-1 cells assessed as inhibition of cell growth measured after 48 hrs by CCK8 assay. The data set is classed as functional.
Data set [11] in a line: Microsomal stability in rat liver microsomes assessed as intrinsic clearance. The data set is classed as ADME, Microsome. Conditions: read-out: CLH. On the technique in general: Liver microsomes are vesicles of endoplasmic reticulum, rich in cytochrome P450 enzymes.
Data set [12] can be described thus: Prodrug conversion in Sprague-Dawley rat plasma assessed as triptolide release at 500 ng/ml measured after 1 hrs by UPLC-MS/MS analysis. The data set is classed as ADME, cell-free.
Data set [13] concerns THP-1. The data set is described as follows: Antitumor activity against human THP-1 cells xenografted in BALB/c nude mouse assessed as cell growth inhibition by measuring effect on Ki67 protein expression in tumor at 0.1 mg/kg, ip administered daily and measured after 28 days by immunohistochemical analysis. Type of data set: functional, organism-based. Conditions: time 28.0 day.

The subject of data set [14] is MV4-11. Description: Antiproliferative activity against human MV4-11 cells assessed as cell growth inhibition measured after 48 hrs by CCK8 assay. Type of data set: functional, cell-based. To be noted: MV4-11, 48 h.
Data set [15] can be described thus: Toxicity in BALB/c nude mouse xenografted with human MV4-11 cells assessed as change in body weight at 180 microg/kg/day, IG measured everyday for 11 days. To be noted: in vivo, po, 264 h, dose 180 µg/kg/day, time 11 day.
Data set [16] concerns MV4-11. The data set is described as follows: Antitumor activity against human MV4-11 cells xenografted in BALB/c nude mouse assessed as tumor growth inhibition at 25 microg/kg, ip qd measured every 2 days for 28 days relative to control. To be noted: MV4-11, 672 h, dose 25 µg/kg, time 28 day, read-out: TGI. Type of data set: functional.
Data set [17] concerns THP-1. Description: Antitumor activity against human THP-1 cells xenografted in BALB/c nude mouse assessed as tumor growth inhibition at 100 microg/kg, ip qd measured every 2 days for 28 days relative to control. Conditions: THP-1, 672 h, dose 100 µg/kg, time 28 day, read-out: TGI. The data set is classed as functional.
The test system of data set [18] is THP-1. The data set is described as follows: Antitumor activity against human THP-1 cells xenografted in BALB/c nude mouse assessed as complete tumor regression at 300 microg/kg, ip qd measured every 2 days for 16 days. The data set is classed as functional, organism-based. Conditions: dose 300.0 µg/kg, time 16.0 day.
Data set [19] in a line: Prodrug conversion in Sprague-Dawley rat plasma assessed as triptolide release at 50 ug/ml measured after 30 mins by HPLC analysis. The data set is classed as ADME, cell-free. Conditions: 0.5 h, dose 50 µg/ml.
Data set [20] deals with THP-1. The data set is described as follows: Antiproliferative activity against human THP-1 cells assessed as cell growth inhibition measured after 24 hrs by Edu incorporation assay. Type of data set: functional, cell-based. To be noted: dose 30-120 nM.
Data set [21] can be described thus: Microsomal stability in rat liver microsomes assessed as half life. Type of data set: ADME, Microsome.
Data set [22] can be described thus: Toxicity in BALB/c nude mouse xenografted with human THP-1 cells assessed as change in body weight at 0.1 to 1.2 mg/kg, ip qd measured every 2 days for 28 days. To be noted: in vivo, 672 h, dose 0.1-1.2 mg/kg, time 28 day. Type of data set: organism-based.
Data set [23] has as its system MV4-11. Description: Antitumor activity against human MV4-11 cells xenografted in ip dosed BALB/c nude mouse assessed as induction of apoptosis by measuring increase in cleaved caspase-3 level in tumor administered daily and measured after 28 days by immunohistochemical staining based analysis. Conditions: dose 25-50 µg/kg, time 28.0 day. The data set is classed as functional, organism-based.

Data set [24] can be described thus: Chemical stability of the compound in water assessed as parent compound remaining at 2 mg/ml measured after 4 hrs by HPLC analysis. The data set is classed as physicochemical. Conditions: read-out: Stability.
The nature of data set [25]: Aqueous solubility of compound at 1 to 10 mg/ml by HPLC analysis. Type of data set: physicochemical. Conditions: water; dose 1-10 mg/ml.
Data set [26] can be described thus: Prodrug conversion in human plasma assessed as triptolide release at 50 to 5000 ng/ml measured for 1 hrs by HPLC analysis. Conditions: dose 50-5000 ng/ml. Type of data set: ADME, cell-free.
Data set [27] deals with THP-1. Description: Antitumor activity against human THP-1 cells xenografted in BALB/c nude mouse assessed as induction of apoptosis by measuring increase in cleaved caspase-3 level in tumor at 0.1 mg/kg, ip administered daily and measured after 28 days by immunohistochemical staining based analysis. Type of data set: functional, organism-based. To be noted: time 28.0 day.

In data set [28] the test system is MV4-11. The data set is described as follows: Antitumor activity against human MV4-11 cells xenografted in BALB/c nude mouse assessed as complete tumor regression at 100 microg/kg, ip qd measured every 2 days for 12 days. To be noted: dose 100.0 µg/kg, time 12.0 day. The data set is classed as functional, organism-based.
The nature of data set [29]: Prodrug conversion in human plasma assessed as triptolide release at 500 ng/ml measured after 1 hrs by UPLC-MS/MS analysis. Type of data set: ADME, cell-free.
Data set [30] has as its system THP-1. Description: Antiproliferative activity against human THP-1 cells assessed as inhibition of cell growth measured after 48 hrs by CCK8 assay. Type of data set: functional, cell-based. To be noted: THP-1, 48 h.
The test system of data set [31] is MV4-11. The data set is described as follows: Antitumor activity against human MV4-11 cells xenografted in BALB/c nude mouse assessed as tumor growth inhibition at 300 microg/kg/day, IG measured everyday for 11 days relative to control. To be noted: MV4-11, po, 264 h, at 300 µg/kg/day, time 11 day, read-out: TGI. The data set is classed as functional.
The subject of data set [32] is MV4-11. The data set is described as follows: Antiproliferative activity against human MV4-11 cells assessed as cell growth inhibition measured after 24 hrs by Edu incorporation assay. Type of data set: functional, cell-based.
Data set [33] in a line: Microsomal stability in rat liver microsomes assessed as hepatic clearance. The data set is classed as ADME, Microsome.
Data set [34] can be described thus: Prodrug conversion in human plasma assessed as triptolide release at 50 ug/ml measured after 45 mins by HPLC analysis. Type of data set: ADME, cell-free. To be noted: 0.75 h, dose 50 µg/ml.
The test system of data set [35] is MV4-11. The data set is described as follows: Antitumor activity against human MV4-11 cells xenografted in ip dosed BALB/c nude mouse assessed as cell growth inhibition by measuring effect on Ki67 protein expression in tumor administered daily and measured after 28 days by immunohistochemical analysis. Type of data set: functional, organism-based. To be noted: dose 25-50 µg/kg, time 28.0 day.

The nature of data set [36]: Prodrug conversion in Sprague-Dawley rat plasma assessed as triptolide release at 500 ng/ml measured after 1.5 hrs by UPLC-MS/MS analysis. Type of data set: ADME, cell-free.

Molecules are shown by their SMILES. pIC50: −log10 of the molar value. Activity calls are given as the source filed them. The rule behind the calls is not given here.

By pIC50 is commonly meant −log10 of the IC50, conventionally taken in molar units. The term half-life denotes how long it takes for the measured level to halve. One may read the solubility as how much of the substance goes into solution per volume. Low readings indicate little dissolved substance, high ones much dissolved substance. Take `CC(C)[C@]12O[C@H]1[C@@H]1O[C@]13[C@]1(O[C@H]1C[C@H]1C4=C(CC[C@@]13C)C(=O)OC4)[C@@H]2OC(=O)COC(=O)CN1CCOCC1.Cl`: the Activity entry in data set [1] is “Toxic”; in the data set with PBMC it was “Non-Toxic”; in data set [15], “Non-Toxic”; in the data set on THP-1 [20] it was “Dose-Dependent Effect”; in data set [22], “Non-Toxic”; with MV4-11 [23], “Dose-Dependent Effect”. Moreover, the Activity result in the data set with MV4-11 [32] and in the data set on MV4-11 [35] was “Dose-Dependent Effect” throughout. Also, the Drug metabolism result in data set [2] was “Metabolite_Notdetected”; in [6] it was “Metabolite_Detected”; in data set [7], “Metabolite_Detected”; in data set [12], “Metabolite_Detected”; in data set [19] it was “Metabolite_Detected”; in data set [26] it was “Metabolite_Detected”. For the same compound, the Drug metabolism entry in [29] and in data set [34] was “Metabolite_Detected” in each case. Moreover, the result in the data set with MV4-11 [3], with MV4-11 [9], in the data set on THP-1 [13], in the data set on THP-1 [18], with THP-1 [27] and in the data set on MV4-11 [28] was Active. Moreover, the “Ratio IC50” value with MV4-11 [4] and with THP-1 [10] was 2 throughout. The remaining at 0 h, 2 mg/ml in [5] was 99.4%. Moreover, the inhibition in vivo at 0.05 mg/kg in the data set on MV4-11 [8] came out at 78.1%. The CLint scaled in data set [11] worked out at 288 mL/min/kg. Further, the negative logarithm of the IC50 (pIC50) was 7.34 in the data set on MV4-11 [14] and 7.83 in the data set on THP-1 [30]. In addition, in the data set on MV4-11 [16], the inhibition in vivo at 0.025 mg/kg turned out to be 54.3%. Moreover, the inhibition in vivo at 0.1 mg/kg in the data set on THP-1 [17] stood at 93.9%. In addition, the half-life in data set [21] turned out to be 8.64 min. Moreover, the remaining at 4 h, 2 mg/ml in [24] was 99.1%. In data set [25], the concentration in solution (solubility) came to 6130 µg/mL. Besides, in the data set on MV4-11 [31], the inhibition in vivo at 0.3 mg/kg/day was 93.5%. The CLhep predicted in data set [33] is 65.6 mL/min/kg.
Take `CC(C)[C@]12O[C@H]1[C@@H]1O[C@]13[C@]1(O[C@H]1C[C@H]1C4=C(CC[C@@]13C)C(=O)OC4)[C@@H]2OC(=O)CCC(=O)[O-].[Na+]` [OMTRIPTOLIDE SODIUM]: in data set [36], the Drug metabolism result is “Metabolite_Detected”.
`CC(C)[C@]12O[C@H]1[C@@H]1O[C@]13[C@]1(O[C@H]1C[C@H]1C4=C(CC[C@@]13C)C(=O)OC4)[C@@H]2OC(=O)COC(=O)CN1CCN(C)CC1.Cl`: the remaining at 0 h, 2 mg/ml in data set [5] is 96.8%. In [19], the Drug metabolism result was “Metabolite_Detected”. Moreover, the remaining at 4 h, 2 mg/ml in data set [24] is 96.7%. Also, the concentration in solution in data set [25] (solubility) was 3820 µg/mL.

Source of the values: ChEMBL document CHEMBL5331052, “Discovery of a novel water-soluble, rapid-release triptolide prodrug with improved drug-like properties and high efficacy in human acute myeloid leukemia” (Eur J Med Chem, 2022).
